Measurements published in doi:10.1101/2023.11.24.568596v1 (biorxiv, 2023).

How the values were obtained:
Conditions in all cases: binder
BRPF1 = target: T1, BRPF1 (Homo sapiens, UniProt P55201)
T1 sequence (P55201 1-1214): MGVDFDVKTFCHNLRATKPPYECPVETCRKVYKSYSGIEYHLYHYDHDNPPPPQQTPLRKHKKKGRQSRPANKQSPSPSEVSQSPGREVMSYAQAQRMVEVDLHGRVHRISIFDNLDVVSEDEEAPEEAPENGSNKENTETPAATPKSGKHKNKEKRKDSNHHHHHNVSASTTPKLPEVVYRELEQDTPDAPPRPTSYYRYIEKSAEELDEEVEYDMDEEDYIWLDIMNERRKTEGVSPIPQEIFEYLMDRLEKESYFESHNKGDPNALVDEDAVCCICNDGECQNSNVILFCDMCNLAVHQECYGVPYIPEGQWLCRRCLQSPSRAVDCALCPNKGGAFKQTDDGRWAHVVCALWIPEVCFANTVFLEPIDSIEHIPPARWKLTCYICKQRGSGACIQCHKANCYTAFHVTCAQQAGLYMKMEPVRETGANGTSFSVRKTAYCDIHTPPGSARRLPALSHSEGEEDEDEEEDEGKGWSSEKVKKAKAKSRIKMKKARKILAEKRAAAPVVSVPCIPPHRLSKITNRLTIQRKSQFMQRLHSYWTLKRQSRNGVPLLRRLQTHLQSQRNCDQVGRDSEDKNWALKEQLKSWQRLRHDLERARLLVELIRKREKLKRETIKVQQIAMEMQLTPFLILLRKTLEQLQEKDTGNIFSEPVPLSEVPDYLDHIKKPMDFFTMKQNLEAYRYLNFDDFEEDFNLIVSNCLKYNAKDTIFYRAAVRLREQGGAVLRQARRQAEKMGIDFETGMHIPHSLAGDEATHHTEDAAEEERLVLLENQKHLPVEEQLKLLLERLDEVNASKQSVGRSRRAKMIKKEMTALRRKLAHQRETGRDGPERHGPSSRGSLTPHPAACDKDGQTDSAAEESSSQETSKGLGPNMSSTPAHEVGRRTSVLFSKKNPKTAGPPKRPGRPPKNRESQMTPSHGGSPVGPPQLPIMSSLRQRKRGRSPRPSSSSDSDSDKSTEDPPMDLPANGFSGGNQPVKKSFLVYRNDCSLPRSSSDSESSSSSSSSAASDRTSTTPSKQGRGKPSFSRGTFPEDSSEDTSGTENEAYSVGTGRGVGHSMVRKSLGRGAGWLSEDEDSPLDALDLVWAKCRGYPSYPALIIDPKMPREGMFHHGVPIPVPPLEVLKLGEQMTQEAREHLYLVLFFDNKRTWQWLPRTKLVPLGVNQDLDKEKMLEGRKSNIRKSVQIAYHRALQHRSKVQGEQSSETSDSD

CDK2 = CDK2 (Homo sapiens, UniProt P24941)
CK1d = CK1d (Homo sapiens, UniProt P48730)
CK1d, sequence (P48730 whole entry): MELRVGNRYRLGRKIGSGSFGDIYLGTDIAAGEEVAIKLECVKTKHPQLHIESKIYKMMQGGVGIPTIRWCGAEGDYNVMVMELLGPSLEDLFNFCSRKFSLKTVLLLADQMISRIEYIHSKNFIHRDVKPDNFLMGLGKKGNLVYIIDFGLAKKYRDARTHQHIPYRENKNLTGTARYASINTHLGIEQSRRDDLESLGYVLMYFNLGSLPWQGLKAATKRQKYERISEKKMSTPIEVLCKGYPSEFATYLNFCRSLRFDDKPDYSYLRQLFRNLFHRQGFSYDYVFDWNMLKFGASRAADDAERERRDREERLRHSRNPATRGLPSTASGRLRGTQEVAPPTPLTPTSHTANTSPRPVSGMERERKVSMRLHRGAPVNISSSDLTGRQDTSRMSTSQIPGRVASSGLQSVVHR

CK2a2 = CK2a2 (Homo sapiens, UniProt P19784)
CK2a2, sequence (P19784 whole entry): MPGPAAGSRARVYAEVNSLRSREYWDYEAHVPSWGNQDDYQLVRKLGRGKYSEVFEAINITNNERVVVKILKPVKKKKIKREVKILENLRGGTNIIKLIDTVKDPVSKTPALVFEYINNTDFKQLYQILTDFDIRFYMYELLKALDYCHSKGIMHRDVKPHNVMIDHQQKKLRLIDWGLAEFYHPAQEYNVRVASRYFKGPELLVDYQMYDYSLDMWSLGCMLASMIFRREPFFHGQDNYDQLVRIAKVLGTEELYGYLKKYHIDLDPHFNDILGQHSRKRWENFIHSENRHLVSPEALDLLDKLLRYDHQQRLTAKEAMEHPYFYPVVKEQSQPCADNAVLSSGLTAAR

GAK = target: T2, GAK (Homo sapiens, UniProt O14976)
T2 sequence (O14976 1-1311): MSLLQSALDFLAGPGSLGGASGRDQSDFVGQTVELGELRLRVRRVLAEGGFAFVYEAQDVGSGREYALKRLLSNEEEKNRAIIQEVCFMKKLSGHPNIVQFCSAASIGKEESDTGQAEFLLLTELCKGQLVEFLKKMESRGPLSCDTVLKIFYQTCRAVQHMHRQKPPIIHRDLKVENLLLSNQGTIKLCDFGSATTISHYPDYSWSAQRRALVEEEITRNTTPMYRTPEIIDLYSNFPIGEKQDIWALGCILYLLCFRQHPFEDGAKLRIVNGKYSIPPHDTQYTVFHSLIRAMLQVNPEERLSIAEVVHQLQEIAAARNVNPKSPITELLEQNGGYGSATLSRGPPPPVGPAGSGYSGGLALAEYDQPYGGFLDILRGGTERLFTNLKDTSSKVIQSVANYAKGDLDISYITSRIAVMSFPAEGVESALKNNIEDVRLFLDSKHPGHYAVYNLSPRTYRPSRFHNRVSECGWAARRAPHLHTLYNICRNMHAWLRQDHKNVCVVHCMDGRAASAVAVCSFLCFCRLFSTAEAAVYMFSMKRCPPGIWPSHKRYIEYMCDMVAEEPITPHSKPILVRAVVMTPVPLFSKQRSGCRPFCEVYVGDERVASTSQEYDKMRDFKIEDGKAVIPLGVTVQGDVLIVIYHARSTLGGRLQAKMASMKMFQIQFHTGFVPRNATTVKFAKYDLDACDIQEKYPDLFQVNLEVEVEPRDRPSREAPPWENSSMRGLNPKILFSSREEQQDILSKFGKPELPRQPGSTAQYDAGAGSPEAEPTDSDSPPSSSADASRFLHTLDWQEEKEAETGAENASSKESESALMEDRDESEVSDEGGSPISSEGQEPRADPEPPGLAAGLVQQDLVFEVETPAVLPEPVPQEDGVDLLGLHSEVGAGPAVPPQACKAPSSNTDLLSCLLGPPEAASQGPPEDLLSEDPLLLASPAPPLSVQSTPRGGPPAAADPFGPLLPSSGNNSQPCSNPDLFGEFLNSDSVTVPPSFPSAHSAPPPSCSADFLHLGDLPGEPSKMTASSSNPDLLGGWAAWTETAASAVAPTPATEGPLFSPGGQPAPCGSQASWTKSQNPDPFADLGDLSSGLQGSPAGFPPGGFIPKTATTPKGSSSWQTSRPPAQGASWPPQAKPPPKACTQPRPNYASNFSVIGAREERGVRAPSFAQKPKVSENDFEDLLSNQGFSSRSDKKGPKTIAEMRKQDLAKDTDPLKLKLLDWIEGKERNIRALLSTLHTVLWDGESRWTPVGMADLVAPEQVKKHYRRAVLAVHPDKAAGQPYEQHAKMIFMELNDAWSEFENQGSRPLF

JNK3 = JNK3 (Homo sapiens, UniProt P53779)
JNK3, sequence (P53779 whole entry): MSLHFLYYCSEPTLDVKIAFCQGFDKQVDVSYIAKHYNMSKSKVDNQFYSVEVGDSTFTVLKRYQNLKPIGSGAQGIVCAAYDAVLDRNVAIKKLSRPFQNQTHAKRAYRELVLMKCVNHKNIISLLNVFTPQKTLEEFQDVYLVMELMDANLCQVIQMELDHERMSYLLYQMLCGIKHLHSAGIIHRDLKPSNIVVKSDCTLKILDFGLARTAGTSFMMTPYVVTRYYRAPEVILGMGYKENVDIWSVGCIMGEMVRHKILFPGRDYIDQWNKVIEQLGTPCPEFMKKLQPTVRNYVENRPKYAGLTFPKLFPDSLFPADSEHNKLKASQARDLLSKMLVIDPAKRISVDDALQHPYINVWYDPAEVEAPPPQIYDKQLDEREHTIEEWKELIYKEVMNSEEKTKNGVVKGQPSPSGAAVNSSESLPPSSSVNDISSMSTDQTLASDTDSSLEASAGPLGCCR

PIM1 = PIM1 (Homo sapiens, UniProt P11309)
PIM1, sequence (P11309 whole entry): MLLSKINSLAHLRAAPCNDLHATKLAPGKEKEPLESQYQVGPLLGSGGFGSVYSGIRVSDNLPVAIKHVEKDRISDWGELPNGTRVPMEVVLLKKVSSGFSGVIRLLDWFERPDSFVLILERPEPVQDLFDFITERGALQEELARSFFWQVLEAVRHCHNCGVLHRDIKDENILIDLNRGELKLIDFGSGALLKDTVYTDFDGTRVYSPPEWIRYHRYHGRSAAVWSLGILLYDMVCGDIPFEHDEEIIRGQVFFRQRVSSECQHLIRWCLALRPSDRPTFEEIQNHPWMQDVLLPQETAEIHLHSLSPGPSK

Compound: Cc1cccc(-c2ccc(-c3cc4cnc(Nc5ccc(C)c(O)c5)nc4n(CCCCN)c3=O)c(Cl)c2)n1 [compound 32, 8-(4-Aminobutyl)-6-(2-chloro-4-(6-methylpyridin-2-yl)phenyl)-2-((3-hydroxy-4-methylphenyl)amino)pyrido[2,3-d]pyrimidin-7(8H)-one]
- ΔTm 32 (BRPF1): -1.4 °C
- ΔTm 32 (CDK2): 5.3 °C
- ΔTm 32 (CK1d): 2.3 °C
- ΔTm 32 (CK2a2): -1.6 °C
- ΔTm 32 (GAK): 13.3 °C
- ΔTm 32 (JNK3): 4.5 °C
- ΔTm 32 (PIM1): 1.2 °C

Compound: Cc1cccc(-c2ccc(-c3cc4cnc(Nc5ccc(O)cc5)nc4n(CCCCN)c3=O)c(Cl)c2)n1 [compound 31, 8-(4-Aminobutyl)-6-(2-chloro-4-(6-methylpyridin-2-yl)phenyl)-2-((4-hydroxyphenyl)amino) pyrido[2,3-d]pyrimidin-7(8H)-one]
- ΔTm 31 (BRPF1): -3.4 °C
- ΔTm 31 (CDK2): 6.7 °C
- ΔTm 31 (CK1d): 2.8 °C
- ΔTm 31 (CK2a2): -0.9 °C
- ΔTm 31 (GAK): 13.3 °C
- ΔTm 31 (JNK3): 4.7 °C
- ΔTm 31 (PIM1): 3.7 °C

Compound: Cc1cccc(-c2ccc(-c3cc4cnc(Nc5cc(C(F)(F)F)ccc5C)nc4n(CCCCN)c3=O)c(Cl)c2)n1 [compound 28, 8-(4-Aminobutyl)-6-(2-chloro-4-(6-methylpyridin-2-yl)phenyl)-2-((2-methyl-5-(trifluoromethyl)phenyl)amino)pyrido[2,3-d]pyrimidin-7(8H)-one]
- ΔTm 28 (BRPF1): -1.6 °C
- ΔTm 28 (CDK2): -0.2 °C
- ΔTm 28 (CK1d): 1.4 °C
- ΔTm 28 (CK2a2): -4.2 °C
- ΔTm 28 (GAK): 9.4 °C
- ΔTm 28 (JNK3): 3.5 °C
- ΔTm 28 (PIM1): 0.5 °C

Compound: Cc1cccc(-c2ccc(-c3cc4cnc(NCCCN5CCNCC5)nc4n(CCCCN)c3=O)c(Cl)c2)n1 [compound 29, 8-(4-Aminobutyl)-6-(2-chloro-4-(6-methylpyridin-2-yl)phenyl)-2-((3-(piperazin-1-yl)propyl)amino)pyrido[2,3-d]pyrimidin-7(8H)-one]
- ΔTm 29 (BRPF1): -1.2 °C
- ΔTm 29 (CDK2): 0.9 °C
- ΔTm 29 (CK1d): 1.3 °C
- ΔTm 29 (CK2a2): -1.6 °C
- ΔTm 29 (GAK): 4.2 °C
- ΔTm 29 (JNK3): 0.8 °C
- ΔTm 29 (PIM1): 0.6 °C

Compound: Cc1cccc(-c2ccc(-c3cc4cnc(Nc5ccc(CCCO)cc5)nc4n(CCCCN)c3=O)c(Cl)c2)n1 [compound 30, 8-(4-Aminobutyl)-6-(2-chloro-4-(6-methylpyridin-2-yl)phenyl)-2-((4-(3-hydroxypropyl)phenyl)amino)pyrido[2,3-d]pyrimidin-7(8H)-one]
- ΔTm 30 (BRPF1): -4.4 °C
- ΔTm 30 (CDK2): 4.8 °C
- ΔTm 30 (CK1d): 2.8 °C
- ΔTm 30 (CK2a2): -1.8 °C
- ΔTm 30 (GAK): 13.2 °C
- ΔTm 30 (JNK3): 4.6 °C
- ΔTm 30 (PIM1): -0.4 °C

Compound: Cc1cccc(-c2ccc(-c3cc4cnc(NCCCN5CCCC5=O)nc4n(CCCCN)c3=O)c(Cl)c2)n1 [compound 27, MR30]
- ΔTm MR30 (27) (BRPF1): -1.8 °C
- ΔTm MR30 (27) (CDK2): 1.4 °C
- ΔTm MR30 (27) (CK1d): 1.6 °C
- ΔTm MR30 (27) (CK2a2): -6.3 °C
- ΔTm MR30 (27) (GAK): 4.3 °C
- ΔTm MR30 (27) (JNK3): 1.7 °C
- ΔTm MR30 (27) (PIM1): -0.5 °C
